From patent publication USRE47475E1, “Selective agents for pain suppression” (WiSys Technology Foundation, Inc., priority 2002, dated 2019)

Tests used:
[1] = target: T1, GABAA/α2 (α2β3γ2 GABAA receptor) (Homo sapiens, UniProt P18507+P47869); assay: competitive binding assay with [3H]flunitrazepam; conditions: Table 3; read-out: Binding Affinity at GABAA/α2
T1 construct: expressed in transfected cells
Description: (§1) Membranes were harvested with a Brandel cell harvester followed by three ice-cold washes onto polyethyleneimine-pretreated (0.3%) Whatman GF/C filters. Filters were dried overnight and then soaked in Ecoscint, a liquid scintillation cocktail (National Diagnostics; Atlanta, Ga.). Bound radioactivity was quantified by liquid scintillation counting. Membrane protein concentrations were determined using an assay kit from Bio-Rad (Hercules, Calif.) with bovine serum albumin as the standard.
as §1, with “The GABAA subunit selectivity of several compounds prepared as described above were determined using competitive binding assays. […] Membranes” for “Membranes”

[2] = target: T2, GABAA/α4 (α4β3γ2 GABAA receptor) (Homo sapiens, UniProt P18507+P48169); assay: competitive binding assay with [3H]flunitrazepam; conditions: Table 3; read-out: Binding Affinity at GABAA/α4
T2 construct: expressed in transfected cells
Description: as §1
as §1, with “The GABAA subunit selectivity of several compounds prepared as described above were determined using competitive binding assays. […] Membranes” for “Membranes”

[3] = target: T3, GABAA/α3 (α3β3γ2 GABAA receptor) (Homo sapiens, UniProt P18507+P34903); assay: competitive binding assay with [3H]flunitrazepam; conditions: Table 3; read-out: Binding Affinity at GABAA/α3
T3 construct: expressed in transfected cells
Description: as §1
as §1, with “The GABAA subunit selectivity of several compounds prepared as described above were determined using competitive binding assays. […] Membranes” for “Membranes”

[4] = target: T4, GABAA/α1 (α1β3γ2 GABAA receptor) (Homo sapiens, UniProt P14867+P18507); assay: competitive binding assay with [3H]flunitrazepam; conditions: Table 3; read-out: Binding Affinity at GABAA/α1
T4 construct: expressed in transfected cells
Description: as §1
as §1, with “The GABAA subunit selectivity of several compounds prepared as described above were determined using competitive binding assays. […] Membranes” for “Membranes”

[5] = target: T5, GABAA/α5 (α5β3γ2 GABAA receptor) (Homo sapiens, UniProt P18507+P31644); assay: competitive binding assay with [3H]flunitrazepam; conditions: Table 3; read-out: Binding Affinity at GABAA/α5
T5 construct: expressed in transfected cells
Description: as §1
as §1, with “The GABAA subunit selectivity of several compounds prepared as described above were determined using competitive binding assays. […] Membranes” for “Membranes”

[6] = target: T6, GABAA/α6 (α6β3γ2 GABAA receptor) (Homo sapiens, UniProt P18507+Q16445); assay: competitive binding assay with [3H]flunitrazepam; conditions: Table 3; read-out: Binding Affinity at GABAA/α6
T6 construct: expressed in transfected cells
Description: as §1
as §1, with “The GABAA subunit selectivity of several compounds prepared as described above were determined using competitive binding assays. […] Membranes” for “Membranes”

[7] = system: seizures; conditions: rats, even orally; cited from earlier work

SMILES | Ki [1] [nM] | Ki [2] [nM] | Ki [3] [nM] | Ki [4] [nM] | Ki [5] [nM] | Ki [6] [nM] | anticonvulsant activity of the sole metabolite [7]
C#Cc1ccc2c(c1)C(c1ccccc1)=NCC(=O)N2C [QB-II-066, 1-Methyl-7-acetyleno-5-phenyl-1,3-dihydro-benzo[e]-1,4-diazepin-2-one] | 42.1 | > 1000 | 47.4 | 76.3 | 6.8 | > 1000 | 
C#Cc1ccc2c(c1)C(c1ccccn1)=NCc1c(C(=O)O)ncn1-2 [HZ-166 acid] |  |  |  |  |  |  | anticonvulsant
